# US10851372B2, “Exosome packaging of nucleic acids” (University of Ottawa, priority 2015, dated 2020)
# B1: siRNA targeting TetR inserted in a pre-miR-451 structural mimic: pre-miR-451 structural mimic targeting TetR, SEQ ID NO: 20 (nucleic acid)
# chain: CUUGGGAAUGGCAAGGUCUUGAUCUUCCAAUACGCAACCGUAUUGGAAGAUCAAGAUCUUGCUAUACCCAGA
# modifications: expressed or natural sequence
# B2: miR-106 in the pre-miR-451 structural mimic: pre-miR-451 structural mimic comprising the miR-106 targeting sequence, plasmid-expressed, SEQ ID NO: 7 (nucleic acid)
# chain: CUUGGGAAUGGCAAGGAAAAGUGCUUACAGUGCAGGUAUGCACUGUAAGCACUUUCUCUUGCUAUACCCAGA
# B3: miR-199 in the pre-miR-451 structural mimic: pre-miR-451 structural mimic comprising the miR-199 targeting sequence, plasmid-expressed, SEQ ID NO: 8 (nucleic acid)
# chain: CUUGGGAAUGGCAAGGACAGUAGUCUGCACAUUGGUUAAUGUGCAGACUACUGUCUCUUGCUAUACCCAGA
# Assays:
# [1] = Effect of drugs on exosome number and miR-451 enrichment in exosomes; type: cell-based; conditions: treatment of exosome-producing cells
# Method: A variety of cellular factors which may affect nucleic acid construct packaging in exosomes using methods as described herein were studied. Specifically, effects of over-expression of mutant Ras, mutant Myc, wild-type Ago2, and siRNA depletion of Translin were studied. […] The effect of several drugs was also tested, such as mTOR inhibitors and lysosomal/autophagy inhibitors which are clinically used. […] Lysosomal/autophagy inhibitors tested include Bafilomycin A1, concanamycin, and NAADP-AM.
# [2] = test system: mouse embryonic fibroblast cells; experiment: Exosomal enrichment of synthetic RNA constructs mimicking pre-miR-451 processing stages (RT-qPCR); type: cell-based; conditions: synthetic RNA transfected, FIG. 9(E)
# Method: Synthetic RNA constructs mimicking WT pre-miR-451 at various processing stages were tested for exosomal enrichment. Constructs were transfected into cells, and exosome enrichment was measured by RT-qPCR after exosome purification by differential centrifugation. miR-451 derived mature siRNA was normalized to levels of let-7a and miR-16 in exosomes vs. cells. Constructs tested include WT pre-mIR-451 construct following Drosha processing (A), an Ago2-cleaved version of the construct (B), and a mature 22 nt miR-451 (post exonuclease activity, having a 5′ targeting portion including a portion of the loop region) (C). For comparison, a standard 21 nt dsRNA siRNA with 3′ overhangs (D) was also tested. Exosomal enrichment results are shown in (E);
# Constructs were accordingly designed which mimic WT pre-miR-451 at various processing stages, and tested for exosomal enrichment. Constructs tested are graphically depicted in FIG. 9. […]
# RNAs corresponding to 42 nt pre-miR-451 with an inserted GFP siRNA, or the same construct up to the Ago2 cleavage site, or the fully mature form of miR-451 produced GFP siRNA (single-stranded 22 nt RNA), or double-stranded GFP siRNA with 2 nt 3′ overhangs were synthesized by IDT. […] Two days later exosomes were purified and levels of mature GFP siRNA in exosomes was quantified by RT-qPCR.
# MEF = experiment: Exosomal enrichment of endogenous miR-451, RT-qPCR in exosomes vs exosome-producing cells; type: cell-based, mouse
# Method: (§1) Firstly, enrichment of endogenously expressed miR-451 in exosomes was compared to other endogenously expressed microRNAs (miR-16, let-7a).
# (§2) Exosomes were enriched by differential centrifugation as previously described (Thery, 2006, Curr Protoc Cell Biol, Chapter 3, Unit 3 22). Briefly, MEF or MDA-MB-231 cells were cultured in media containing FBS depleted of exosomes by centrifugation at 100 000 g for 16 h (Thery, 2006, Curr Protoc Cell Biol, Chapter 3, Unit 3 22). To purify exosomes supernatant from cell cultures was centrifuged at 400 g (7 min), 2000 g (10 min) and 10 000 g (30 min, SW32 rotor). At each step the supernatant was recovered. After centrifugation at 100 000 g (1 h 10 min, SW32 rotor) the supernatant was removed and the pellet was resuspended. The pellet was washed in PBS by a final centrifugation at 100 000 g (20 min, TLA100.3 rotor). The exosome-enriched pellet was re-suspended in PBS for further analyses.
# RT-qPCR was performed with the MiScript II Reverse Transcriptase system (Qiagen) and GoTaq® qPCR Master Mix (Promega A6002) using primers allowing amplification of the DNA produced in the reverse transcriptase step. […]
# RT-qPCR was performed with (Promega A6002) or Quantitect qPCR master mix (Qiagen) using primers allowing amplification of the DNA produced in the reverse transcriptase step using the following primers mir-451: […] […]
# BV2 = experiment: as above; type: cell-based, mouse; conditions: exosome-depleted or serum-free media
# Method: as §1
# (§3) RT-qPCR was performed with the MiScript II Reverse Transcriptase system (Qiagen) and GoTaq® qPCR Master Mix (Promega A6002) using primers allowing amplification of the DNA produced in the reverse transcriptase step. Results were normalized to the ubiquitous miRNA let-7a and miR-16.
# (§4) RT-qPCR was performed with (Promega A6002) or Quantitect qPCR master mix (Qiagen) using primers allowing amplification of the DNA produced in the reverse transcriptase step using the following primers mir-451: […] (SEQ ID NO: 14), let-7a: […] (SEQ ID NO: 15), mir-16: […] (SEQ ID NO: 16).
# C8D1A = experiment: as above; type: cell-based, mouse; conditions: exosome-depleted or serum-free media
# Method: as §1, §3, §4
# C8D30 = experiment: as above; type: cell-based, mouse; conditions: exosome-depleted or serum-free media
# Method: as §1, §3, §4
# C8S = experiment: as above; type: cell-based, mouse; conditions: exosome-depleted or serum-free media
# Method: as §1, §3, §4
# JAWSII = experiment: as above; type: cell-based, mouse; conditions: exosome-depleted or serum-free media
# Method: as §1, §3, §4
# MN1 = experiment: as above; type: cell-based, mouse; conditions: exosome-depleted or serum-free media
# Method: as §1, §3, §4
# Macrophage = experiment: as above; type: cell-based, mouse; conditions: exosome-depleted or serum-free media
# Method: as §1, §3, §4
# N2A = experiment: as above; type: cell-based, mouse; conditions: exosome-depleted or serum-free media
# Method: as §1, §3, §4
# NSC34 = experiment: as above; type: cell-based, mouse; conditions: exosome-depleted or serum-free media
# Method: as §1, §3, §4
# MDA-MB-231 = experiment: Exosomal enrichment of endogenous miRNAs, RT-qPCR in exosomes vs exosome-producing cells; type: cell-based, human
# From the text: Exosomes from breast epithelial cell line (MDA-MB-231) or mouse embryonic fibroblasts (MEF) were purified and multiple techniques were used to confirm the identity and purity of exosome preparations (see FIG. 1A-D). Dynamic light scattering and Nanosight particle tracking was used to ensure that exosomes purified were highly pure populations of particles with diameter of 100 nm, as expected for exosomes. […] RNA was isolated from these exosomes and the cells that produced them, and RT-qPCR was used to characterize the relative abundance of miRNAs.
# as §1, §2, §3
# MSC Line = experiment: Exosomal enrichment of endogenous miR-451, RT-qPCR in exosomes vs exosome-producing cells; type: cell-based; conditions: exosome-depleted or serum-free media
# Method: as §1, §3, §4
# ESC = experiment: as above; type: cell-based, human
# Method: as §1, §3, §4
# Primary MSC = experiment: as above; type: cell-based, human; conditions: exosome-depleted or serum-free media
# Method: as §1, §3, §4
# [3] = test system: exosomes from multiple cell types and sources; conditions: plasma, serum, mast cells, glioblastoma, B cells, cardiac progenitor cells, MSC; cited from earlier work
# [4] = test system: Ago2 knockout mouse embryonic fibroblasts; experiment: Effect of Ago2 on exosomal enrichment of siRNA from pre-miR-451 structural mimic (qRT-PCR); type: cell-based; conditions: compared to wild-type cells or Ago2 knockout cells rescued with wild-type or catalytically dead Ago2, FIG. 10
# Method: (§5) In these experiments, plasmids including siRNA sequences targeting GFP or TctR integrated in a pre-miR-451 structural mimic were transfected into cells, and the levels of GFP or TetR siRNA in exosomes vs cells (vs. let-7a and miR-16 in exosomes/cells) was measured by qRT-PCR two to three days later. Enrichment of miR-451 derived sequences in exosomes was normalized to 1 for wild-type exosomes.
# Testing of the effect of Ago2 on enrichment of siRNA-containing constructs in exosomes using pre-miR-451 structural mimics as described herein was also performed.
# as §5, with “TetR” for “TctR”
# MDA-MB-231 cells = experiment: Exosomal enrichment of miRNA expressed from transfected pre-miR-451 structural mimic plasmids (RT-qPCR); type: cell-based, human; conditions: FIG. 3B
# Method: (§6) (C) The ratio of endogenous miRNAs (let-7a, miR-106, miR-155) was measured in exosomes and exosome-producing cells (MEF, mouse embryonic fibroblasts) by RT-qPCR. y-axis is log 10. miR-451 is not endogenously expressed in these cells.
# (§7) Plasmids expressing pre-miR-451, or pre-miR-451 structural mimics including the sequences of other miRNA, were transfected into the two cell types. Expressing miR-106 or miR-155 in the pre-miR-451 structural mimic caused them to be enriched up to 39-fold in exosomes produced by either MEF or breast cancer cells (see FIG. 3B,D). […] In MEF cells, endogenous miR-451 was undetectable in either cells or exosomes (see FIG. 3C).
# (§8) Cells were transfected with plasmids using Lipofectamine 2000 according to the manufacturer's instructions. After four hours cells were washed in PBS and incubated with DMEM containing 10% FBS depleted of exosomes by ultracentrifugation according to Thery et al. (2006). After 24 h media was harvested and exosomes were purified by differential ultracentrifugation. RNA was purified from exosomes and exosome-producing cells using Trizol according to the manufacturer's instructions.
# Exosomes were enriched by differential centrifugation as previously described (Thery, 2006, Curr Protoc Cell Biol, Chapter 3, Unit 3 22). […]
# MEF cells = experiment: as above; type: cell-based, mouse; conditions: for Effect of pre-miR-451 backbone on levels of inserted miRNA in cells: MEF cells transfected with plasmids, FIG. 4
# Method: as §6
# MEF cells were transfected with pre-miR-451 expressing plasmids (“technology”) containing miR-199, miR-155 or miR-106, and exosomes were purified and RT-qPCR was performed on exosomes and cells.
# as §7, §8
# as §2, with “The exosome-enriched pellet was re-suspended in PBS for further analyses.” left out
molecule,measurement,setting,value
CO/C1=C\C(C)=C\[C@@H](C)[C@@H](O)[C@@H](C)C/C(C)=C/C=C/[C@H](OC)[C@@H]([C@@H](C)[C@@H](O)[C@H](C)[C@@]2(O)C[C@@H](O)[C@H](C)[C@@H](C(C)C)O2)OC1=O [Bafilomycin A1],Effect on exosome number,[1],increased exosome number
C/C=C/[C@H]1O[C@@](O)([C@@H](C)[C@H](O)[C@H](C)[C@H]2OC(=O)/C(OC)=C/C(C)=C/[C@@H](C)[C@@H](O)[C@@H](CC)[C@@H](O)[C@H](C)C/C(C)=C/C=C/[C@@H]2OC)C[C@@H](O)[C@@H]1C [concanamycin],Effect on exosome number,[1],increased exosome number
"AUGAACUUCAGGGUCAGCUUGC (listed as RNA, chemistry not fully specified) [fully mature ss, fully mature form of miR-451 produced GFP siRNA, single-stranded 22 nt RNA]","Exosomal enrichment among constructs mimicking processing stages (normalized to let-7a and miR-16, exosomes vs. cells)",[2],most strongly exosome-enriched construct
same,Exosomal enrichment compared with standard dsRNA siRNA with 3′ overhangs,[2],higher than dsRNA
NAADP-AM,Effect on exosome number,[1],increased exosome number
"miR-451: endogenous miRNA strongly enriched in exosomes; generated from pre-miR-451 by Ago2 cleavage, Dicer-independent (AAACCGUUACCAUUACUGAGUUU; expressed or natural sequence; listed as Homo Sapiens)",Endogenous miR-451 in cells or exosomes,"MEF; MEF cells, FIG. 3C",undetectable
same,Enrichment of miR-451 in exosomes/cell (vs. miR-16 and let-7a),"MEF; MEF, exosome-depleted or serum-free media",68800
same,Enrichment of miR-451 in exosomes/cell (vs. miR-16 and let-7a),BV2,1887
same,Enrichment of miR-451 in exosomes/cell (vs. miR-16 and let-7a),C8D1A,40
same,Enrichment of miR-451 in exosomes/cell (vs. miR-16 and let-7a),C8D30,22
same,Enrichment of miR-451 in exosomes/cell (vs. miR-16 and let-7a),C8S,383
same,Enrichment of miR-451 in exosomes/cell (vs. miR-16 and let-7a),JAWSII,23642
same,Enrichment of miR-451 in exosomes/cell (vs. miR-16 and let-7a),MN1,44
same,Enrichment of miR-451 in exosomes/cell (vs. miR-16 and let-7a),Macrophage,1280
same,Enrichment of miR-451 in exosomes/cell (vs. miR-16 and let-7a),N2A,4119
same,Enrichment of miR-451 in exosomes/cell (vs. miR-16 and let-7a),NSC34,73
same,Ratio of endogenous miRNA in exosomes and exosome-producing cells (in words),"MDA-MB-231; MDA-MB-231, FIG. 3A",highly enriched in exosomes
same,Enrichment of miR-451 in exosomes/cell (vs. miR-16 and let-7a),"MDA-MB-231; MDA, exosome-depleted or serum-free media",5600
same,"Enrichment of miR-451 in exosomes compared to its levels in cells, compared to other miRNA","MDA-MB-231; endogenous miRNA, MDA-MB-231, FIG. 3A",up to 308 fold
same,Enrichment of miR-451 in exosomes/cell (vs. miR-16 and let-7a),MSC Line,5293
same,Enrichment of miR-451 in exosomes/cell (vs. miR-16 and let-7a),"ESC; ESC, exosome-depleted or serum-free media",3
same,Enrichment of miR-451 in exosomes (in words),"ESC; human embryonic stem cells, H9 line, FIG. 7",strongly enriched
same,Enrichment of miR-451 in exosomes/cell (vs. miR-16 and let-7a),Primary MSC,702
same,Enrichment of miR-451 in exosomes in several studies,[3],10-10000 fold
B1,Enrichment of siRNA in exosomes in Ago2 knockout cells,[4],still enriched in exosomes
B2,Enrichment in exosomes of miRNA inserted in the pre-miR-451 backbone (in words),MDA-MB-231 cells,comparable with miR-451
same,Effect of pre-miR-451 backbone on levels of inserted miRNA in cells,MEF cells,neglible effects
same,Enrichment in exosomes of miRNA inserted in the pre-miR-451 backbone (in words),"MEF cells; MEF cells, FIG. 3D",highly enriched
B3,Effect of pre-miR-451 backbone on levels of inserted miRNA in cells,MEF cells,neglible effects
